The values below come from ChEMBL document CHEMBL1129881 (Bioorg Med Chem Lett, 1997).

For the assay, the target named is Vasopressin V2 receptor (Sus scrofa, UniProt P32307). Description: Tested for the inhibition to V2 subtype receptor using [3H]- (VS2) as radioligand at 3 nM and arginine-vasopressin at 2 uM in LLCPKI cells. In kind it is cell-based.

As usually defined, the IC50 is the point on the concentration scale where inhibition reaches its midpoint.

Vasopressin V2 receptor, sequence (P32307 whole entry): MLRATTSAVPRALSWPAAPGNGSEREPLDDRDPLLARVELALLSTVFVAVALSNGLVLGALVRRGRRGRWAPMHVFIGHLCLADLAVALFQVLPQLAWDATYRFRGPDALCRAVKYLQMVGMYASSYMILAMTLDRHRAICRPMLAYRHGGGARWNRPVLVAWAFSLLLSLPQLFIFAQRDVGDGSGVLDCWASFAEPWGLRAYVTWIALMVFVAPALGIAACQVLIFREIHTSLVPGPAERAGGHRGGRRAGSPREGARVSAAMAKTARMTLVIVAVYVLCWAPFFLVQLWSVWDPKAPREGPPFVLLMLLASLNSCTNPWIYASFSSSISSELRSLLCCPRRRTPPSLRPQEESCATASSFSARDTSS

Consider `NC(=O)CC[C@@H]1NC(=O)[C@H](Cc2ccccc2)NC(=O)[C@H](Cc2ccc(O)cc2)NC(=O)[C@@H](N)CSSSC[C@@H](C(=O)N2CCC[C@H]2C(=O)N[C@@H](CCCN=C(N)N)C(=O)NCC(N)=O)NC(=O)[C@H](CC(N)=O)NC1=O`, for which the IC50 came out at 9.5 nM.
